Data as given in PMC7301643 (Biochemistry, 2020).

Columns and labels:
[1] = target: T1, capping protein (CP, CPα1β2) (Mus musculus, UniProt P47753+P47757); assay: Fluorescence anisotropy titration of CP into TAMRA-labeled CPI-motif peptide; format: binding
[2] = target: T1, capping protein (CP, CPα1β2); assay: Isothermal calorimetry; format: binding; details: for ΔG°obs, ITC: ΔG° = −RT ln Ka
[3] = target: CP:F-actin barbed end (Mus musculus, UniProt P47753+P47757); assay: Pyrene-actin polymerization; format: biochemical, Oryctolagus cuniculus (actin); details: at concentrations higher than 1 μM
[4] = target: CP bound to F-actin (Mus musculus, UniProt Q5RKN9+Q923G3); assay: Kd for CPI binding to CP bound to F-actin, calculated from thermodynamic cycle; set-up: species or system Oryctolagus cuniculus (actin)
[5] = independent experiment 1 (first line), 25 °C, pH 7.2
[6] = independent experiment 2 (second line)

Question: With Ac-WASHCAP-NH2 [WASHCAP] as the substance, how does the Kd [1] read?
Answer: 8.5 ± 0.8 nM

Question: What about the “N (stoichiometry), ITC” value [2, 5] of the same substance?
Answer: 0.985 ± 0.004

Question: And the “TΔS°obs, ITC” value [2, 5]?
Answer: -14.1 kcal/mol

Question: And the “ΔH°obs, ITC” value [2, 5]?
Answer: -24.6 ± 0.1 kcal/mol

Question: What about the “ΔG°obs, ITC” value [2, 5] of the same substance?
Answer: -10.56 ± 0.04 kcal/mol

Question: And the “N (stoichiometry), ITC” value [2, 6]?
Answer: 0.971 ± 0.009

Question: What about the “TΔS°obs, ITC” value [2, 6] of the same substance?
Answer: -18.3 kcal/mol

Question: And the “ΔH°obs, ITC” value [2, 6]?
Answer: -28.9 ± 0.4 kcal/mol

Question: What about the “ΔG°obs, ITC” value [2, 6] of the same substance?
Answer: -10.60 ± 0.10 kcal/mol

Question: And the “interference of peptide with actin polymerization” value [3]?
Answer: interfered with polymerization

Question: And the Kd [4]?
Answer: 110 ± 10 nM
